Literature values in article PMC2233745 (The Journal of General Physiology, 2001).

Tested on: high Km PDE
Conditions: high Km PDE in GH3 and GH4C1 cells; ref Gautvik et al. 1982; cited from earlier work

Nc1ncnc2c1ncn2[C@@H]1O[C@@H]2COP(=O)(O)O[C@H]2[C@H]1O [cAMP]
Km: 28.6 µM
